This note sets out measurements from patent US9056111B1, “Selective efflux inhibitors and related pharmaceutical compositions and methods of treatment” (STC.UNM, priority 2011, dated 2015).

One data set has as its target T1, ABCB1 / ABCG2 (Homo sapiens, UniProt Q9UNQ0).
T1 sequence (Q9UNQ0 1-655): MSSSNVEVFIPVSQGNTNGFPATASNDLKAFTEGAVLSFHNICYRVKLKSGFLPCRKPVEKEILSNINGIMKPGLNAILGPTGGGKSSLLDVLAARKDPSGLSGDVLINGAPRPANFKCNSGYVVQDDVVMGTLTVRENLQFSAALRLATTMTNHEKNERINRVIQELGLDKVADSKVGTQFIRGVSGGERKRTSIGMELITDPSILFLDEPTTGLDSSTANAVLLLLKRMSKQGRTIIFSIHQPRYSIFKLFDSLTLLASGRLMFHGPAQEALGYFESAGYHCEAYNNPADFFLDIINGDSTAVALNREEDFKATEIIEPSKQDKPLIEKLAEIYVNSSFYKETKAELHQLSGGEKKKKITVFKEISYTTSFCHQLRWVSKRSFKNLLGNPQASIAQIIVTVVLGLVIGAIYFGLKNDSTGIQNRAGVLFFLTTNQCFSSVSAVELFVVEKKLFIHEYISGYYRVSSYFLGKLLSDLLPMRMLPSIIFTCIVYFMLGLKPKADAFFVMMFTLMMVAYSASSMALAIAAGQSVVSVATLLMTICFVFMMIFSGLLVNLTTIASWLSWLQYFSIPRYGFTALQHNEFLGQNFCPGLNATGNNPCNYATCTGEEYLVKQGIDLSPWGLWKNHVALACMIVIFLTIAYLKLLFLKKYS
As to the kind of experiment: JC-1 efflux inhibition dose response, flow cytometry, Ig-MXP3 cells. The conditions noted are these: human, probe JC-1 (1 µM), ~Fold G2 Selective (B1/G2), quotient of average ABCB1 IC50 and average ABCG2 IC50, efflux assay. In a few lines: (§1)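 Ig-MXP3 (ABCG2) and Jurkat-DNR (ABCB1) cells, run separately, are pre-stained with 1 μM JC-1 and added to compound in PBS; retained dye is read by high-throughput flow cytometry with time-gated analysis.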

A further data set addresses T2, ABCG2 (Homo sapiens, UniProt Q9UNQ0).
T2 sequence (Q9UNQ0 1-655): T1 sequence (Q9UNQ0 1-655)
Described as above. In short, it runs like this: as §1

The subject of data set [1] is ABCG2 over-expressing Ig-MXP3 cells. As to the kind of experiment: Chemoreversal assay: potentiation of mitoxantrone (MTX) killing. The class given is cell-based.
The test system of the next data set is Ig-MXP3 cells. As to the kind of experiment: Direct cytotoxicity (Toxic Dose 50) without chemotherapeutic. In kind it is cell-based. The conditions noted are these: Ig-MXP3 cells, inhibitor without chemotherapeutic.
The nature of data set [2]: Aqueous solubility in PBS. The class given is physicochemical. The conditions noted are these: phosphate buffered saline (PBS), aqueous buffer; PBS pH 7.4, room temperature (23° C.). The procedure: PBS by definition is 137 mMNaCl, 2.7 mMKCl, 10 mM sodium phosphate dibasic, 2 mM potassium phosphate monobasic and a pH of 7.4.
Data set [3] in a line: Flow cytometric kinetic solubility. The class given is physicochemical. The conditions noted are these: kinetic from dmso stock. From the text: Applying a flow cytometrickinetic solubility protocol,^65 we were also able to compare solubility across primary, secondary, and profiling buffer conditions in house. […] This is approximately three fold higher than reported above; however, our protocol uses 1% DMSO as compared to 0.1%. […] The presence of fetal bovine serum also affects compound availability and in the primary assay screening buffer (6.7% FBS in PBS, 1% DSMO) the precipitation was inhibited slightly with no particulate noted at 3 μg/mL. […] In general, we are confident that compound availability is sufficient for the concentration ranges discussed for this scaffold set in our described biological systems.

A short description of data set [4]: Aqueous stability in PBS at room temperature. In kind it is physicochemical. How it is done:
Aqueous stability was measured at room temperature (23° C.) in PBS (no antioxidants or other protectants and DMSO concentration below 0.1%). The stability of SID 88095709, determined as the percent of compound remaining after 48 hours, was 10%.^64Stability data are depicted as a graph showing the loss of compound with time over a 48 hour period with a minimum of 6 time points and provide the percent remaining compound at end of the 48 hours (FIG. 3, closed circles).
The stability data under these conditions overlain in the FIG. 3 and is also depicted as a graph showing the loss of compound with time over a 48 hour period with a minimum of 6 time points and provide the percent remaining compound at end of the 48 hours (FIG. 3, closed triangles). The addition of acetonitrile appears to have solubilized the compound and provided a more accurate reading of the stability, which is now 100% remaining after 48 hours.

As usually defined, the IC50 is the concentration that inhibits the measured activity by half. The low end stands for higher potency, the high end for lower potency. As a reminder, the solubility is the dissolved amount per volume that the medium holds. As a reminder, the solubility (kinetic) is the concentration staying in solution when a stock, usually in DMSO, is diluted into the medium.

In brackets after ≈: the same amount, converted by molar mass. Like-named read-outs stand apart in the source and are kept apart here.

On to `O=C(c1ccoc1)N1CCN(c2cc(-c3ccco3)nc3cc(-c4ccccc4)nn23)CC1` [Compound 1, (4-(5-(furan-2-yl)-2-phenylpyrazolo[1,5-a]pyrimidin-7-yl)piperazin-1-yl)(furan-3-yl)methanone], for which the selectivity ratio at 30 min at ABCB1 / ABCG2 was found to be 36. Further, the EC50 worked out at 130 nM at ABCG2 and 310 nM in data set [1] (Ig-MXP3 cells, constant 30 nM MTX, varied inhibitor dose, read-out: CR50 ABCG2). Moreover, the IC50 at ABCG2 was determined as 130 ± 300 nM. Besides, the “fold higher potency in ABCG2 than the prior art Ko143” value at ABCG2 (JC-1 efflux reporter system) was “approximately 100 fold”. Besides, on ABCG2 (quotient of average ABCB1 IC50 and average ABCG2 IC50, efflux assay), the “~Fold G2 Selective (B1/G2)” value was 35.8 fold. In data set [1] (ABCG2 vs ABCB1), the “selectivity in chemoreversal (cell killing assay)” value was 1.8 fold. Also, the “TD50 ABCG2” value with Ig-MXP3 cells came to 18.30 µM; in the data set with Ig-MXP3 cells (listed as SID 88095709), 18.3 µM. Moreover, the solubility in data set [2] amounted to 0.51 µg/mL (≈ 1.16 µM). For the same compound, the solubility (kinetic) in data set [3] (PBS with 1% DMSO, pH 7.4, aqueous buffer, PBS alone, 1% DMSO, read-out: kinetic solubility) was 2 µg/mL (≈ 4.55 µM); in data set [3] (growth media (RPMI with 10% FBS, 1% DMSO), plasma or biological fluid, read-out: kinetic solubility, no precipitate forming at) it was ≥ 6 µg/mL; in data set [3] (primary assay screening buffer (6.7% FBS in PBS, 1% DMSO), plasma or biological fluid, read-out: kinetic solubility, no particulate noted at) it was ≥ 3 µg/mL. Besides, the “Aqueous stability, percent of compound remaining after 48 hours” value in data set [4] (PBS alone, 23° C., DMSO below 0.1%) stood at 10%. Also, the “Aqueous stability, percent remaining after 48 hours” value in data set [4] (PBS with acetonitrile (50% v/v final)) is reported as 100%.
